Key:
Assay in all cases: relative viability (nuclei count vs DMSO), 5 days (fraction); higher = more cells survive
Dasatinib + Luminespib = compound: Cc1nc(Nc2ncc(C(=O)Nc3c(C)cccc3Cl)s2)cc(N2CCN(CCO)CC2)n1 [Dasatinib] + CCNC(=O)c1noc(-c2cc(C(C)C)c(O)cc2O)c1-c1ccc(CN2CCOCC2)cc1 [Luminespib] (partner 0.01 µM)
Procedure, shortened: (§1)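 Values are medians from duplicate plates. Each reflects relative viability, defined as the nuclei count of treated wells over that of vehicle wells. Lung cancer cell lines in 1536-well plates were pin-tool dosed one day after seeding with one drug alone or with a fixed anchor-drug dose plus five library-drug doses (not always all listed) in √10 steps, then fixed, stained and imaged at 4× after 5 days.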

Dasatinib + OSI-027 = compound: Cc1nc(Nc2ncc(C(=O)Nc3c(C)cccc3Cl)s2)cc(N2CCN(CCO)CC2)n1 [Dasatinib] + COc1cccc2cc(-c3nc([C@H]4CC[C@H](C(=O)O)CC4)n4ncnc(N)c34)[nH]c12 [OSI-027] (partner 0.5 µM)
Procedure, shortened: as §1

Dasatinib + AZD7762 = compound: Cc1nc(Nc2ncc(C(=O)Nc3c(C)cccc3Cl)s2)cc(N2CCN(CCO)CC2)n1 [Dasatinib] + NC(=O)Nc1cc(-c2cccc(F)c2)sc1C(=O)N[C@H]1CCCNC1 [AZD7762] (partner 0.2 µM)
Procedure, shortened: as §1

Dasatinib + Vorinostat = compound: Cc1nc(Nc2ncc(C(=O)Nc3c(C)cccc3Cl)s2)cc(N2CCN(CCO)CC2)n1 [Dasatinib] + O=C(CCCCCCC(=O)Nc1ccccc1)NO [Vorinostat] (partner 1 µM)
Procedure, shortened: as §1

Cell Line	relative viability (Dasatinib + Luminespib; first compound 0.005 µM)	relative viability (Dasatinib + Luminespib; first compound 0.01581 µM)	relative viability (Dasatinib + Luminespib; first compound 0.05 µM)	relative viability (Dasatinib + Luminespib; first compound 0.1581 µM)	relative viability (Dasatinib + Luminespib; first compound 0.5 µM)	relative viability (Dasatinib + OSI-027; first compound 0.005 µM)	relative viability (Dasatinib + OSI-027; first compound 0.01581 µM)	relative viability (Dasatinib + OSI-027; first compound 0.05 µM)	relative viability (Dasatinib + OSI-027; first compound 0.1581 µM)	relative viability (Dasatinib + OSI-027; first compound 0.5 µM)	relative viability (Dasatinib + AZD7762; first compound 0.005 µM)	relative viability (Dasatinib + AZD7762; first compound 0.01581 µM)	relative viability (Dasatinib + AZD7762; first compound 0.05 µM)	relative viability (Dasatinib + AZD7762; first compound 0.1581 µM)	relative viability (Dasatinib + AZD7762; first compound 0.5 µM)	relative viability (Dasatinib + Vorinostat; first compound 0.005 µM)	relative viability (Dasatinib + Vorinostat; first compound 0.01581 µM)	relative viability (Dasatinib + Vorinostat; first compound 0.05 µM)	relative viability (Dasatinib + Vorinostat; first compound 0.1581 µM)	relative viability (Dasatinib + Vorinostat; first compound 0.5 µM)
LOU-NH91	0.348	0.348	0.285	0.259	0.27	0.705	0.604	0.595	0.526	0.344	0.747	0.638	0.623	0.469	0.384	0.822	0.846	0.687	0.583	0.429
LU99A	0.229		0.247	0.143	0.166	0.296		0.264	0.232	0.216	0.399	0.35	0.277	0.215	0.171	0.464	0.448	0.515	0.366	0.288
LXF-289	0.745	0.564	0.648	0.334	0.138	0.812	0.733	0.567	0.323	0.125	1.14	1.12	1.09	0.371	0.184	0.754	0.779	0.762	0.495	0.254
NCI-H23	0.233	0.195	0.217	0.19	0.187	0.497	0.502	0.615	0.492	0.325	0.321	0.24	0.231	0.224	0.187	0.519	0.567	0.512	0.349	0.314
NCI-H322M	0.779	0.491	0.38	0.288	0.232	0.549	0.483	0.351	0.213	0.168	0.597	0.526	0.468	0.265	0.381	0.668	0.535	0.426	0.311	0.258
NCI-H358	0.215	0.169	0.253	0.262	0.136	0.806	0.542	0.439	0.149	0.122	0.538	0.455	0.364	0.241	0.244	0.513	0.47	0.388	0.15	0.128
NCI-H441	0.372	0.307	0.225	0.196	0.193	0.784	0.582	0.742	0.424	0.307	1.27	1.01	0.904	0.723	0.364	0.778	0.651	0.887	0.813	0.581
NCI-H460	0.0311	0.031	0.0288	0.02	0.0207	0.549	0.474	0.405	0.387	0.17	0.523	0.546	0.542	0.472	0.328	0.659	0.619	0.877	0.475	0.315
NCI-H522	1.16	0.913	1.08	0.775	0.923	0.72	0.69	0.643	0.596	0.632	0.857	0.73	0.882	0.654	0.634	1.03	0.822	0.962	0.788	0.84
NCI-H596	0.809	0.691	0.776	0.552	0.478	0.656	0.632	0.547	0.479	0.306	0.945	0.828	0.929	0.74	0.553	0.59	0.384	0.412	0.313	0.322
NCI-H647	0.141	0.0794	0.137	0.117	0.0952	0.672	0.303	0.251	0.213	0.118	0.468	0.399	0.141	0.114	0.155	0.674	0.49	0.415	0.149	0.184
NCI-H650	0.771	0.777	0.852	0.401	0.213	0.591	0.524	0.493	0.303	0.265	0.75	0.896	1.01	0.606	0.4	0.413	0.564	0.381	0.384	0.287
NCI-H727	0.255	0.425	0.334	0.237	0.244	0.6	0.488	0.45	0.295	0.197	0.547	0.587	0.595	0.375	0.35	1.18	0.97	0.841	0.871	0.264
NCI-H838	0.265	0.24	0.196	0.189	0.158	0.409	0.266	0.265	0.252	0.179	0.868	0.786	0.811	0.685	0.669	0.678	0.632	0.584	0.422	0.348
NCI-H1355	0.766	0.561	0.569	0.458	0.435	0.434	0.291	0.287	0.272	0.271	0.851	0.711	0.694	0.571	0.535	0.618	0.54	0.655	0.445	0.331
NCI-H1395	0.684	0.627	0.663	0.443	0.363	0.615	0.7	0.541	0.361	0.35	0.401	0.39	0.358	0.356	0.356	0.722	0.762	0.515	0.291	0.387
